Patent US8012963B2, “3,4-dihydro-2H-benzo[1,4]oxazine and thiazine derivatives as CETP inhibitors” (Janssen Pharmaceutica N.V., priority 2006, dated 2011)
Values joined by “and” are separate entries in the source; they are usually repeats but may differ in a detail not shown here. Identical values can stand only once.

Each compound was assayed against T1, CETP (Homo sapiens, UniProt P11597) (assay: CETP in vitro assay ([3H]CE-HDL transfer, Amersham kit TRKQ7005; modified protocol in human plasma)). Conditions: 1 μM compound; multiple values = multiple measurements.
T1 construct: from tissue; host or cells: human plasma from normal volunteers
T1 sequence (P11597 18-493): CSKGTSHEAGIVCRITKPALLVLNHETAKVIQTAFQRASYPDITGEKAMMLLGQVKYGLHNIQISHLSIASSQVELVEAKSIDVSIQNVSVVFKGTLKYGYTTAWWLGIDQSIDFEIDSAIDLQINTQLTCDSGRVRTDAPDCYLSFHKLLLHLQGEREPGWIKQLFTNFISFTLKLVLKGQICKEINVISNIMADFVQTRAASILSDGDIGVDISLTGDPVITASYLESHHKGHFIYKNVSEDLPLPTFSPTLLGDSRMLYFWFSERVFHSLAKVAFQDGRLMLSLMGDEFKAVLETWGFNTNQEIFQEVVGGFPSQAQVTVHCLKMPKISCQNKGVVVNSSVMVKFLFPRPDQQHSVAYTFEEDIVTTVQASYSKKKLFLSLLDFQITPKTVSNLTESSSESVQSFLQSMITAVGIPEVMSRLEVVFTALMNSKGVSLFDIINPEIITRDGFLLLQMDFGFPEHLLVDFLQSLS
Assay type: biochemical
Protocol: The CETP inhibitory activity of the compounds was determined using a commercially available kit from Amersham Biosciences (Catalog #TRKQ7005).
For the measurement of inhibitory activity in human plasma, a modified protocol (Connolly, D. T. et al., Biochemistry, 39 13870-13879, 2000) was used. Briefly, 80 μl of human plasma (obtained from normal volunteers), approximately 25 μg/ml (200) of [^3H]CE-HDL (Amersham Biosciences from kit TRKQ7005) and 1 μl of compound dissolved in DMSO was incubated for at least 4 hrs at 37° C. and non-specific transfer was determined by incubating a corresponding plate at 4° C. (blank). After the incubation period, 100 of a solution of 1% Dextralip 50/0.5M MgCl2, pH 7.4 was added, vortexed and incubated at room temperature for 10 min. The plate was then centrifuged for 30 min at 10° C. at 3000 rpm in a Sorvall RT6000B centrifuge. Fifty microliters of the supernatant was transferred to a Picoplate (Packard) containing 100 μl of Microscint 40 (Perkin Elmer) and mixed for 30 min using a plate mixer. The radioactivity was counted using a TopCount (Perkin Elmer) and the % control was determined in the samples using the following formula: % transfer relative to vehicle controls (% control)=[cpm blank-cpm test]/cpm blank/cpm control]×100. IC50s were calculated from plots of the % control versus compound concentration.
A variety of example compounds have been made and tested, with a range of in vitro results. Below, in Table 2, are representative compounds and the corresponding data; in some cases, where multiple IC50's are shown, multiple measurements were taken. Naturally, different compounds in Formula (I), (Ia), (Ib) and (Ic) may have not activities identical to any one compound below.

SMILES | inhibition at 1 µM [%]
CCOC(=O)N1c2cccc(-c3cccc(OC(F)(F)F)c3)c2OCC1c1cccc(OC(F)(F)C(F)F)c1 (stereo not drawn) [Compound 21, 3-[3-(1,1,2,2-Tetrafluoro-ethoxy)-phenyl]-8-(3-trifluoromethoxy-phenyl)-2,3-dihydro-benzo[1,4]oxazine-4-carboxylic acid ethyl ester] | 2
CC(C)(C)[Si](C)(C)OCCN1c2cccc(-c3cccc(OC(F)(F)F)c3)c2OCC1c1cccc(OC(F)(F)C(F)F)c1 (stereo not drawn) [Compound 22, 4-[2-(tert-Butyl-dimethyl-silanyloxy)-ethyl]-3-[3-(1,1,2,2-tetrafluoro-ethoxy)-phenyl]-8-(3-trifluoromethoxy-phenyl)-3,4-dihydro-2H-benzo[1,4]oxazine] | 13
CC(C)(C)[Si](C)(C)OCCCN1c2cccc(-c3cccc(OC(F)(F)F)c3)c2OCC1c1cccc(OC(F)(F)C(F)F)c1 (stereo not drawn) [Compound 25, 4-[3-(tert-Butyl-dimethyl-silanyloxy)-propyl]-3-[3-(1,1,2,2-tetrafluoro-ethoxy)-phenyl]-8-(3-trifluoromethoxy-phenyl)-3,4-dihydro-2H-benzo[1,4]oxazine] | 13
FC(F)C(F)(F)Oc1cccc(C2COc3c(-c4cccc(OC(F)(F)F)c4)cccc3N2CCN2CCOCC2)c1 (stereo not drawn) [Compound 29, 4-(2-Morpholin-4-yl-ethyl)-3-[3-(1,1,2,2-tetrafluoro-ethoxy)-phenyl]-8-(3-trifluoromethoxy-phenyl)-3,4-dihydro-2H-benzo[1,4]oxazine] | 0
FC(F)C(F)(F)Oc1cccc(C2COc3c(-c4cccc(OC(F)(F)F)c4)cccc3N2CCN2CCNCC2)c1 (stereo not drawn) [Compound 30, 4-(2-piperazin-1-yl-ethyl)-3-[3-(1,1,2,2-tetrafluoro-ethoxy)-phenyl]-8-(3-trifluoromethoxy-phenyl)-3,4-dihydro-2H-benzo[1,4]oxazine] | 0
CN1CCN(CCN2c3cccc(-c4cccc(OC(F)(F)F)c4)c3OCC2c2cccc(OC(F)(F)C(F)F)c2)CC1 (stereo not drawn) [Compound 31, 4-[2-(4-Methyl-piperazin-1-yl)-ethyl]-3-[3-(1,1,2,2-tetrafluoro-ethoxy)-phenyl]-8-(3-trifluoromethoxy-phenyl)-3,4-dihydro-2H-benzo[1,4]oxazine] | 17
CN1c2cccc(-c3cccc(OC(F)(F)F)c3)c2OCC1c1cccc(OC(F)(F)C(F)F)c1 (stereo not drawn) [Compound 32, 4-Methyl-3-[3-(1,1,2,2-tetrafluoro-ethoxy)-phenyl]-8-(3-trifluoromethoxy-phenyl)-3,4-dihydro-2H-benzo[1,4]oxazine] | 0
CCN1c2cccc(-c3cccc(OC(F)(F)F)c3)c2OCC1c1cccc(OC(F)(F)C(F)F)c1 (stereo not drawn) [Compound 33, 4-Ethyl-3-[3-(1,1,2,2-tetrafluoro-ethoxy)-phenyl]-8-(3-trifluoromethoxy-phenyl)-3,4-dihydro-2H-benzo[1,4]oxazine] | 24
C[C@@H](O)CN1c2cccc(-c3cccc(OC(F)(F)F)c3)c2OC[C@@H]1c1cccc(OC(F)(F)C(F)F)c1 [Compound 35, 4H-1,4-Benzoxazine-4-ethanol, 2,3-dihydro-α-methyl-3-[3-(1,1,2,2-tetrafluoroethoxy)phenyl]-8-[3-(trifluoromethoxy)phenyl]-, (3S,αR)—] | 47
C[C@H](O)CN1c2cccc(-c3cccc(OC(F)(F)F)c3)c2OC[C@@H]1c1cccc(OC(F)(F)C(F)F)c1 [Compound 36, 4H-1,4-Benzoxazine-4-ethanol, 2,3-dihydro-α-methyl-3-[3-(1,1,2,2-tetrafluoroethoxy)phenyl]-8-[3-(trifluoromethoxy)phenyl]-, (3S,αS)—] | 28
O=C(CN1c2cccc(-c3cccc(OC(F)(F)F)c3)c2OC[C@@H]1c1cccc(OC(F)(F)C(F)F)c1)C(F)(F)F [Compound 37, 2-Propanone, 3-[(3S)-2,3-dihydro-3-[3-(1,1,2,2-tetrafluoroethoxy)phenyl]-8-[3-(trifluoromethoxy)phenyl]-4H-1,4-benzoxazin-4-yl]-1,1,1-trifluoro-] | 5
CC(=O)CN1c2cccc(-c3cccc(OC(F)(F)F)c3)c2OC[C@@H]1c1cccc(OC(F)(F)C(F)F)c1 [Compound 38, 2-Propanone, 1-[(3S)-2,3-dihydro-3-[3-(1,1,2,2-tetrafluoroethoxy)phenyl]-8-[3-(trifluoromethoxy)phenyl]-4H-1,4-benzoxazin-4-yl]-] | 5
NCCN1c2cccc(-c3cccc(OC(F)(F)F)c3)c2OCC1c1cccc(OC(F)(F)C(F)F)c1 (stereo not drawn) [Compound 39, 2-[3-[3-(1,1,2,2-Tetrafluoro-ethoxy)-phenyl]-8-(3-trifluoromethoxy-phenyl)-2,3-dihydro-benzo[1,4]oxazin-4-yl]-ethylamine] | 2
CS(=O)(=O)NCCN1c2cccc(-c3cccc(OC(F)(F)F)c3)c2OCC1c1cccc(OC(F)(F)C(F)F)c1 (stereo not drawn) [Compound 43, N-{2-[3-[3-(1,1,2,2-Tetrafluoro-ethoxy)-phenyl]-8-(3-trifluoromethoxy-phenyl)-2,3-dihydro-benzo[1,4]oxazin-4-yl]-ethyl}-methanesulfonamide] | 0

Second part, the compound after the results:

inhibition at 1 µM [%] | SMILES
29 | OCCN1c2cccc(-c3cccc(OC(F)(F)F)c3)c2OCC1c1cccc(OC(F)(F)C(F)F)c1 (stereo not drawn) [Compound 23, 2-[3-[3-(1,1,2,2-Tetrafluoro-ethoxy)-phenyl]-8-(3-trifluoromethoxy-phenyl)-2,3-dihydro-benzo[1,4]oxazin-4-yl]-ethanol]
25 | COCCN1c2cccc(-c3cccc(OC(F)(F)F)c3)c2OCC1c1cccc(OC(F)(F)C(F)F)c1 (stereo not drawn) [Compound 24, 4-(2-Methoxy-ethyl)-3-[3-(1,1,2,2-tetrafluoro-ethoxy)-phenyl]-8-(3-trifluoromethoxy-phenyl)-3,4-dihydro-2H-benzo[1,4]oxazine]
10 | OCCCN1c2cccc(-c3cccc(OC(F)(F)F)c3)c2OCC1c1cccc(OC(F)(F)C(F)F)c1 (stereo not drawn) [Compound 26, 3-[3-[3-(1,1,2,2-Tetrafluoro-ethoxy)-phenyl]-8-(3-trifluoromethoxy-phenyl)-2,3-dihydro-benzo[1,4]oxazin-4-yl]-propan-1-ol]
29 | COCCCN1c2cccc(-c3cccc(OC(F)(F)F)c3)c2OCC1c1cccc(OC(F)(F)C(F)F)c1 (stereo not drawn) [Compound 27, 4-(3-Methoxy-propyl)-3-[3-(1,1,2,2-tetrafluoro-ethoxy)-phenyl]-8-(3-trifluoromethoxy-phenyl)-3,4-dihydro-2H-benzo[1,4]oxazine]
9 | CN(C)CCN1c2cccc(-c3cccc(OC(F)(F)F)c3)c2OCC1c1cccc(OC(F)(F)C(F)F)c1 (stereo not drawn) [Compound 28, Dimethyl-{2-[3-[3-(1,1,2,2-tetrafluoro-ethoxy)-phenyl]-8-(3-trifluoromethoxy-phenyl)-2,3-dihydro-benzo[1,4]oxazin-4-yl]-ethyl}-amine]
38 | CCCN1c2cccc(-c3cccc(OC(F)(F)F)c3)c2OCC1c1cccc(OC(F)(F)C(F)F)c1 (stereo not drawn) [Compound 34, 4-Propyl-3-[3-(1,1,2,2-tetrafluoro-ethoxy)-phenyl]-8-(3-trifluoromethoxy-phenyl)-3,4-dihydro-2H-benzo[1,4]oxazine]
0 | CC(=O)NCCN1c2cccc(-c3cccc(OC(F)(F)F)c3)c2OCC1c1cccc(OC(F)(F)C(F)F)c1 (stereo not drawn) [Compound 40, N-{2-[3-[3-(1,1,2,2-Tetrafluoro-ethoxy)-phenyl]-8-(3-trifluoromethoxy-phenyl)-2,3-dihydro-benzo[1,4]oxazin-4-yl]-ethyl}-acetamide]
2 | COC(=O)NCCN1c2cccc(-c3cccc(OC(F)(F)F)c3)c2OCC1c1cccc(OC(F)(F)C(F)F)c1 (stereo not drawn) [Compound 41, {2-[3-[3-(1,1,2,2-Tetrafluoro-ethoxy)-phenyl]-8-(3-trifluoromethoxy-phenyl)-2,3-dihydro-benzo[1,4]oxazin-4-yl]-ethyl}-carbamic acid methyl ester]
8 | COC(=O)N(C)CCN1c2cccc(-c3cccc(OC(F)(F)F)c3)c2OCC1c1cccc(OC(F)(F)C(F)F)c1 (stereo not drawn) [Compound 42, Methyl-{2-[3-[3-(1,1,2,2-tetrafluoro-ethoxy)-phenyl]-8-(3-trifluoromethoxy-phenyl)-2,3-dihydro-benzo[1,4]oxazin-4-yl]-ethyl}-carbamic acid methyl ester]

Same assay, conditions: 1 μM compound; multiple values = multiple measurements; 1 µM

SMILES | % Inhibition @ 1 μM [%]
CCCN1c2cccc(-c3cccc(OC(F)(F)F)c3)c2OCC1c1cccc(OC(F)(F)C(F)F)c1 (stereo not drawn) [Compound 34, 4-Propyl-3-[3-(1,1,2,2-tetrafluoro-ethoxy)-phenyl]-8-(3-trifluoromethoxy-phenyl)-3,4-dihydro-2H-benzo[1,4]oxazine] | 39
C[C@@H](O)CN1c2cccc(-c3cccc(OC(F)(F)F)c3)c2OC[C@@H]1c1cccc(OC(F)(F)C(F)F)c1 [Compound 35, 4H-1,4-Benzoxazine-4-ethanol, 2,3-dihydro-α-methyl-3-[3-(1,1,2,2-tetrafluoroethoxy)phenyl]-8-[3-(trifluoromethoxy)phenyl]-, (3S,αR)—] | 52

Same assay, conditions: multiple values = multiple measurements

SMILES | IC50
CCCN1c2cccc(-c3cccc(OC(F)(F)F)c3)c2OCC1c1cccc(OC(F)(F)C(F)F)c1 (stereo not drawn) [Compound 34, 4-Propyl-3-[3-(1,1,2,2-tetrafluoro-ethoxy)-phenyl]-8-(3-trifluoromethoxy-phenyl)-3,4-dihydro-2H-benzo[1,4]oxazine] | 190 nM
C[C@@H](O)CN1c2cccc(-c3cccc(OC(F)(F)F)c3)c2OC[C@@H]1c1cccc(OC(F)(F)C(F)F)c1 [Compound 35, 4H-1,4-Benzoxazine-4-ethanol, 2,3-dihydro-α-methyl-3-[3-(1,1,2,2-tetrafluoroethoxy)phenyl]-8-[3-(trifluoromethoxy)phenyl]-, (3S,αR)—] | 26 nM and 117 nM and 121 nM
